# Source: PMC7177638 (International Journal of Molecular Sciences, 2020)
# Assays:
# [1] = Cyclic voltammetry, cathodic reduction potential in aqueous solution; assay type: physicochemical; conditions: values normalized vs. SCE; phosphate buffer pH 7.4, 5 mM NaCl, 5·10^−4 M complex, scan rate 0.020 V s^−1
# Description: The electrochemical characterization of compounds 1–6, performed by using cyclic voltammetry (CV), was carried out with the aim of determining the cathodic reduction potentials in aqueous solution (Ep^c).
# Cyclic voltammetry (CV) measurements were carried out with a potentiostat CHI 1230B (CH Instruments, Inc., Austin, TX, USA) in a standard three-electrode electrochemical cell. The working electrode was a glassy carbon (GC) electrode, the reference electrode was a KCl-saturated Ag/AgCl and the counter was a Pt sheet. The GC electrode was carefully polished with alumina powder, then rinsed with distilled water and dried, to obtain a reproducible surface for all the experiments. All the measurements, conducted in triplicate, were carried out in buffered aqueous solutions containing the Pt(IV) compound at a concentration of 5·10^−4 M in 10 mL phosphate buffer (PB, pH = 7.4, I = 0.1) and 5 mM NaCl as supporting electrolyte. A blank solution (without Pt(IV) complex) was also tested. All the peak potentials were measured with a scan rate of 0.020 V s^−1; the initial potential was chosen equal to the open-circuit potential and the scan direction was negative. All the CV plots were acquired after an equilibration time of 2 min in order to make the GC surface reproducible.
# [2] = tested on: 2008 human ovarian cancer cells; assay: MTT cytotoxicity test, 72 h; assay type: cell-based; conditions: 2008, MTT
# Description: (§1) The in vitro cytotoxic activities of compounds 1–6 were assayed on a panel of human cancer cell lines containing examples of pancreatic (PSN-1), colon (HCT-15 and LoVo), cervical (A431), and ovarian (2008) cancers. Cisplatin and oxaliplatin were used as reference compounds and were tested under the same experimental conditions.
# (§2) Human colon (HCT-15 and LoVo) and pancreatic (PSN-1) carcinoma cell lines were obtained from the American Type Culture Collection (ATCC, RocKville, MD). The 2008 human ovarian cancer cells were kindly provided by Prof. G. Marverti (Dept. of Biomedical Science of Modena University, Italy). Human cervical carcinoma (A431) cells were kindly provided by Prof. F. Zunino (Division of Experimental Oncology B, Istituto Nazionale dei Tumori, Milan, Italy). […] Cell lines were maintained in the logarithmic phase at 37 °C in a 5% carbon dioxide atmosphere using RPMI-1640 or F-12 culture medium (Euroclone) containing 10% fetal calf serum (Euroclone, Milan, Italy), antibiotics (50 units per mL penicillin and 50 μg mL^−1 streptomycin), and 2 mM L-glutamine.
# (§3) The growth inhibitory effect toward the tumor cell lines was evaluated by the MTT test. Briefly, 3-8·10^3 cells/well, depending upon the growth characteristics of the cell lines, were seeded in 96-well microplates in growth medium (100 µL) and then incubated at 37 °C in a 5% carbon dioxide atmosphere. After 24 h, the medium was removed and replaced with a fresh one containing the compound to be tested at the appropriate concentration. Triplicate cultures were established for each treatment. After 72 h, each well was treated with 10 µL of a 5 mg·mL^−1 MTT (3-(4,5-dimethylthiazol-2-yl)-2,5-diphenyltetrazolium bromide) saline solution and, after 5 h of incubation, 100 µL of a sodium dodecylsulfate (SDS) solution in HCl 0.01 M were added. Following an overnight incubation, the inhibition of cell growth induced by the tested complexes was evaluated by measuring the absorbance of each well at 570 nm using a Bio-Rad 680 microplate reader (Bio-Rad Laboratories S.r.l., Segrate (MI), Italy).
# [3] = tested on: A431 human cervical carcinoma cells; assay: MTT cytotoxicity test, 72 h; assay type: cell-based
# Description: as §1, §2, §3
# [4] = tested on: HCT-15 human colon carcinoma cells; assay: MTT cytotoxicity test, 72 h; assay type: cell-based; conditions: HCT-15, MTT
# Description: as §1, §2, §3
# [5] = tested on: LoVo human colon carcinoma cells; assay: MTT cytotoxicity test, 72 h; assay type: cell-based
# Description: as §1, §2, §3
# [6] = tested on: PSN-1 human pancreatic carcinoma cells; assay: MTT cytotoxicity test, 72 h; assay type: cell-based; conditions: PSN-1, MTT
# Description: as §1, §2, §3
# LoVo-OXP cancer cells = assay: MTT cytotoxicity test, 72 h, oxaliplatin-resistant cells; assay type: cell-based, human; conditions: for IC50: LoVo OXP
# From the text: as §2, §3
# [7] = tested on: human A431 cancer cell spheroids; assay: Cytotoxicity towards 3D spheroids, acid phosphatase (APH) assay; assay type: cell-based; conditions: A431 3D spheroids, 72 h; for IC50: APH assay
# From the text: The remarkable cell-killing effect observed against human A431 squamous cervical carcinoma two-dimensional (2D) cultured cells prompted us to evaluate the in vitro antitumor activity of compounds 1–6 on three-dimensional (3D) cell cultures. As opposed to 2D monolayer cultures, cells growing in 3D culture systems form spheroids that comprise cells in various stages. […] Such cellular heterogeneity resembles that of in vivo tumors, making 3D cell cultures more predictive than conventional 2D monolayer cultures in screening antitumor drugs.
# Spheroid cultures were obtained by seeding 2.5 × 10^3 A431 cancer cells/well in a round bottom non-treated tissue culture 96 well-plate (Greiner Bio-one, Kremsmünster, Austria) in phenol red free RPMI-1640 medium (Sigma Chemical Co.) containing 10% fetal calf serum (FCS) and supplemented with 20% methyl cellulose stock solution.
# An APH modified assay was used for determining cell viability in 3D spheroids, as previously described. IC50 values were calculated with a four parameter logistic (4-PL) model.
# A431 cells = assay: Cellular accumulation of Pt (GF-AAS); assay type: cell-based, human; conditions: 24 h, 0.5 μM
# Description: It is clearly recognized that the antitumor activity of platinum-based anticancer drugs depends on the ability of compounds to accumulate into cancer cells and to bind to nuclear DNA, thus inducing transcription inhibition and cell death. Therefore, we investigated the cellular uptake as well as the DNA binding ability of 1–6 in human A431cervical cancer cells. Cells were treated for 24 h with 0.5 μM of 1–6 or CDDP and the total cellular and DNA-bound platinum contents were quantified using GF–AAS analysis. The results, expressed as ng of metal per 10^6 cells, in the case of cellular uptake (A) and as pg of metal per μg of DNA, in the case of DNA-bound platinum (B) are summarized in Figure 9.
# A431 cells (2·10^6) were seeded in 75 cm^2 flasks in growth medium (20 mL). After 24 h, the medium was replaced and the cells incubated for 24 h in the presence of the tested complexes.
# Cells monolayers were washed twice with cold phosphate-buffered saline (PBS), harvested, and counted. Samples were subjected to three freeze–thaw cycles at −80 °C, and then vigorously vortexed. The samples were treated with highly pure nitric acid (1 mL; Pt ≤ 0.01 mg kg^−1, Trace-SELECT Ultra, Sigma Chemical Co.) and transferred into a microwave Teflon vessel. Subsequently, samples were submitted to standard mineralization procedures. Samples were analyzed for platinum by using a Varian AA Duo graphite furnace atomic absorption spectrometer (Varian, Palo Alto, CA; USA) at a wavelength of […]. The calibration curve was obtained using known concentrations of standard solutions purchased from Sigma Chemical Co.
Compound,Cathodic reduction potential Ep^c [1],IC50 [2],IC50 [3],IC50 [4],IC50 [5],IC50 [6],IC50 (LoVo-OXP cancer cells),IC50 [7],"cellular uptake (cellular internalization of Pt), in words (A431 cells)",effectiveness against sensitive (LoVo) versus resistant (LoVo-OXP) cells (LoVo-OXP cancer cells),"efficacy in decreasing cancer spheroid viability, times higher than CDDP [7]","efficacy in decreasing cancer spheroid viability, times higher than OXP [7]"
"CC(=O)[O][Pt]1([Cl])[O]C(=O)C(=O)[O]1.NC1CC=CCC1N (racemic) [Complex 5, cis,trans,cis-[Pt(OXA)(AcO)Cl(DACHEX)]]",−0.82 V,930 ± 300 nM,1510 ± 600 nM,1970 ± 400 nM,250 ± 50 nM,3580 ± 1400 nM,> 2000 nM,26400 ± 5500 nM,the worst in crossing the cell plasmalemma,,,
"NC1CC=CCC1N.O=C([O-])C(=O)[O-].O=C([O-])c1ccccc1.O=C([O-])c1ccccc1.[Pt+4] (mixture of isomers) [Complex 3, cis,trans,cis-[Pt(OXA)(BzO)2(DACHEX)]]",−0.99 V,140 ± 30 nM,160 ± 70 nM,410 ± 100 nM,70 ± 20 nM,540 ± 300 nM,90 ± 20 nM,1800 ± 400 nM,the most effective in entering cancer cells,equally effective,about 32,~20
"NC1CC=CCC1N.O=C1[O][Pt]([OH])([Cl])[O]C1=O (racemic) [Complex 6, cis,trans,cis-[Pt(OXA)(OH)Cl(DACHEX)]]",−0.48 V,1870 ± 400 nM,1310 ± 700 nM,1670 ± 400 nM,660 ± 20 nM,5250 ± 1200 nM,> 2000 nM,30200 ± 3800 nM,the worst in crossing the cell plasmalemma,,,
